Laboratory results published in US10730875B2, “Substituted imidazo[1,2-A]pyridin-2-ylamine compounds, and pharmaceutical compositions and methods of use thereof” (JN Therapeutics, priority 2015, dated 2020).

Legend:
[1] = target: human Janus kinase 1 (JAK1), recombinant catalytic domain (Homo sapiens (Human), UniProt P23458); assay: LanthaScreen TR-FRET enzymatic assay, JAK1; assay type: biochemical; conditions: 1 mM ATP, GFP-STAT1 substrate, read-out: Inhibitory Activity IC50 JAK1
Method: (§1) The in vitro inhibition of recombinant human JAKs was determined as follow.
(§2) Compounds were tested in LANTHASCREEN™ time-resolved fluorescence energy transfer (TR-FRET) enzymatic assays from Invitrogen. The human Janus kinase 1 (JAK1) used in the assay is the recombinant JAK1 catalytic domain (amino acids 866-1154) expressed and purified from insect cells (Invitrogen, Cat. No. PV4774). The human Janus kinase 2 (JAK2) used in the assay is the recombinant JAK2 catalytic domain (amino acids 808-1132) expressed and purified from insect cells (Invitrogen, Cat. No. PV4210). The human Janus kinase 3 (JAK3) used in the assay is the recombinant JAK3 catalytic domain (amino acids 781-1124) expressed and purified from insect cells (Invitrogen, Cat. No. PV3855). The human tyrosine kinase 2 (TYK2) used in the assay is the recombinant TYK2 catalytic domain (amino acids 833-1187) expressed and purified from insect cells (Invitrogen, Cat. No. PV4790). The substrate is a recombinant STAT1 expressed as a fusion with GFP (Green Fluorescent Protein) to act as a physiological substrate (Invitrogen, Cat. No. PV5211).
(§3) Test compounds were prepared and diluted in DMSO in 3-fold serial dilutions for 10 doses to 100× of the final testing concentrations. The compounds were then further diluted to 4× by the kinase reaction buffer (Invitrogen, Cat. No. PV3189). The enzymatic reaction for compound testing was performed in a white 384-well polypropylene plate (Packard, Cat. No. 6005214) with a total reaction volume of 10 μL containing 440 ng/mL JAK1, 11 ng/mL JAK2, 400 ng/mL JAK3, or 200 ng/mL TYK2, 100 nM substrate, and 1 mM ATP. The assay started with loading 2.5 μL of JAK1, JAK2, JAK3, or TYK2 diluted in the kinase reaction buffer to wells, followed by addition of an equal volume of 4× compounds for 15-min incubation at room temperature for pre-treatment. The enzymatic reaction was initiated by addition of 5 μL of a mixture of the substrate and ATP prepared in the kinase reaction buffer. After one hour reaction, 10 μL mixture of EDTA (final 10 mM) and terbium-labeled anti-pSTAT1 (pTyr701) antibody (final 2 nM) (Invitrogen, Cat. No. PV4844) prepared in TR-FRET antibody dilution buffer (Invitrogen, Cat. No. PV3574) was added to stop the enzymatic reaction and produce TR-FRET signals. After 30 minutes of incubation at room temperature, the plate was read in Tecan Infinite F200 Pro with the following settings: Excitation 340 nm (30)/Emission1 495 nm (10)/Emission2 520 nm (25). The TR-FRET values were dimensionless numbers that were calculated as the ratio of the acceptor ([…]) signal to the donor (Terbium) signal. Percent of inhibition was calculated as (100%−percentage of compound-treated/DMSO vehicle-treated). The dose-response curves were generated and the IC50s were calculated by nonlinear sigmoid curve fitting using GraphPad Prism.
(§4) In Table 1, A represents a value no greater than 500 nM, B represents a value greater than 500 nM but no greater than 1 μM, C represents a value greater than 1 μM but no greater than 5 μM, and D represents a value greater than 5 μM. In Table 2, A′ represents a ratio of greater than 8, B′ represents a ratio of no greater than 8 but no less than 4, C′ represents a ratio of no greater than 4 but no less than 2, and D′ represents a ratio of no greater than 2. The selectivity is expressed as a ratio of the IC50 values of a compound against two kinases to be compared.

JAK1 = JAK1 (Homo sapiens (Human), UniProt P23458); assay: Cellular JAK1 assay: IL-6-mediated STAT3 phosphorylation in TF-1 cells; assay type: cell-based; conditions: IL-6 stimulation, STAT3 phosphorylation at Tyr705 (AlphaLISA), read-out: Inhibitory Activity Against JAK1 IC50
JAK1, sequence (P23458 whole entry): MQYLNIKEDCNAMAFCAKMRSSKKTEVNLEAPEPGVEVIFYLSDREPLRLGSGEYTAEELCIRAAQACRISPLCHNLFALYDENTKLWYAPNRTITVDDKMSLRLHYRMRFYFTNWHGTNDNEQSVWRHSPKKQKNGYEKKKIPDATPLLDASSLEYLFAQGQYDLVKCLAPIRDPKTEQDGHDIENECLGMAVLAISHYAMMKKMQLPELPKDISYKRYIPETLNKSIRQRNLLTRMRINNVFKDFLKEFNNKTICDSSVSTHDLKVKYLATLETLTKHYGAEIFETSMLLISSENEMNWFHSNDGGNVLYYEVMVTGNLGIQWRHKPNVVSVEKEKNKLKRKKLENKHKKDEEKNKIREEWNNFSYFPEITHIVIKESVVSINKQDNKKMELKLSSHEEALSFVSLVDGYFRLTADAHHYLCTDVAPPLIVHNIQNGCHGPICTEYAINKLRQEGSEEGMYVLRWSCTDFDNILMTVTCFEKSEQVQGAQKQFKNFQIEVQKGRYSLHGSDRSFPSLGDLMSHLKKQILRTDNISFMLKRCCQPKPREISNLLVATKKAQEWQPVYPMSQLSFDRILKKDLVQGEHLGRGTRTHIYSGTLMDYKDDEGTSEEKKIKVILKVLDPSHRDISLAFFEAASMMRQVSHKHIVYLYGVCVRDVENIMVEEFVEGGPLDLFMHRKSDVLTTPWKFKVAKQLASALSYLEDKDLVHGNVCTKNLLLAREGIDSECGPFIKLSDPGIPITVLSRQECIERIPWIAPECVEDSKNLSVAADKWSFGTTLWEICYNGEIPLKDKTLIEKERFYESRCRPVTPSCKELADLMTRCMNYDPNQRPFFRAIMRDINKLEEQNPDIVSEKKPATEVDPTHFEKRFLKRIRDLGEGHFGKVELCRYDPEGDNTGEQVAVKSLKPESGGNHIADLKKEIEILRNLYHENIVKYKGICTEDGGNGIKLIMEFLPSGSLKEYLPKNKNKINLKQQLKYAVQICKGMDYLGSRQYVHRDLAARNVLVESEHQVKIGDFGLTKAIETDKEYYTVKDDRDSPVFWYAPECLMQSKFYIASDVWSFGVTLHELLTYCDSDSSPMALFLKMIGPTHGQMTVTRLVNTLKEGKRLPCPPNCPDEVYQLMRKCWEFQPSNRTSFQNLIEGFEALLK
Method: The cellular potency of a compound on JAK1 or JAK2 inhibition is determined by measuring the cytokine-mediated phosphorylation of STAT proteins in TF-1 cells.
Human cytokines of IL-6 (R&D Systems, Cat. No. 206-IL-010/CF) and GM-CSF (R&D Systems, Cat. No. 215-GM-010/CF) are reconstituted at 10 μg/mL in D-PBS containing 0.1% BSA (Sigma, Cat. No. A8577) and human EPO (R&D Systems, Cat. No. 287-TC-500) at 500 U/mL in D-PBS containing 0.1% BSA. TF-1 cells (ATCC, CRL-2003) were grown in RPMI1640 (ATCC, Cat. No. 30-2001) supplemented with 2 ng/mL of recombinant human GM-CSF, 10% FBS (Gibco, Cat. No. 10437-028), and 100 U/mL penicillin-streptomycin (Gibco, Cat. No. 15140-122). The cells were maintained and propagated between 1×10^5 cells/mL to 7.5×10^5 cells/mL. Aliquots of the cells from early passages were preserved for liquid nitrogen storage. Frozen vials of the cells were thawed at 37° C. water bath. The cells were spun to remove freezing medium. The newly revived frozen cells were adapted in culture for 5-7 days before used for compound testing. The cells used in for compound testing were less than 20 subculture passages or 3 months in culture.
To test compounds, the TF-1 cells were harvested at a density of 3 to 7×10^5 cells/mL by centrifugation. After removing the culture medium, the resulting cell pellet was suspended and washed once by centrifugation with HBSS buffer (Gibco, Cat. No. 14025-092) containing 0.1% BSA. The cell pellet was resuspended in HBSS buffer at 7.5×10^6 cells/mL. Four micro-liters of the cells (3×10^4 cells in total) were added to each well of a white 384-well plate (Packard, Cat. No. 6005214).
The compounds were first diluted in dimethylsulfoxide (DMSO) (Sigma, Cat. No. D2650) to generate 9 3-fold diluted dosing concentrations in a 96-well polypropylene plate (Corning, Cat. No. 3365), followed by addition of HBSS buffer for another 125-fold dilution. To the cells, 2 μL of the diluted compounds were added and mixed by tapping the plate several times. The cells were incubated for 2 hrs of treatment. DMSO was used as a control and similarly diluted along and added to the cells.
To assay JAK1 inhibition, 2 μL of IL-6 diluted at 400 ng/mL (4×) in HBSS containing 0.1% BSA was added to the treated cells. The cells were then incubated for 30 min of cytokine treatment and lysed at the end by addition of 2 μL of 5×AlphaLISA SureFire Ultra lysis buffer from Perkin Elmer. The plate was agitated on a plate shaker for 10 min at room temperature. The cellular JAK1 activity was determined by measuring STAT3 phosphorylation at Tyr705 in lysates using the AlphaLISA SureFire Ultra kit (Perkin Elmer, Cat. No. ALSU-PST3-A500). A volume of 5 μL of acceptor mix and donor mix was added sequentially to lysates following the product protocol. The assay signals were recorded on EnVision plate reader (Perkin Elmer) with AlphaScreen optics setting.
The results are summarized in Table 3, where A represents a value no greater than 500 nM, B represents a value greater than 500 nM but no greater than 1 μM, C represents a value greater than 1 μM but no greater than 5 μM, and D represents a value greater than 5 μM.

[2] = target: human tyrosine kinase 2 (TYK2), recombinant catalytic domain (Homo sapiens (Human), UniProt P29597); assay: LanthaScreen TR-FRET enzymatic assay, TYK2; assay type: biochemical; conditions: TR-FRET, 1 mM ATP, GFP-STAT1 substrate; read-out: Inhibitory Activity IC50 TYK2
human tyrosine kinase 2 (TYK2), recombinant catalytic domain (Homo sapiens (Human), UniProt P29597), sequence (P29597 833-1187): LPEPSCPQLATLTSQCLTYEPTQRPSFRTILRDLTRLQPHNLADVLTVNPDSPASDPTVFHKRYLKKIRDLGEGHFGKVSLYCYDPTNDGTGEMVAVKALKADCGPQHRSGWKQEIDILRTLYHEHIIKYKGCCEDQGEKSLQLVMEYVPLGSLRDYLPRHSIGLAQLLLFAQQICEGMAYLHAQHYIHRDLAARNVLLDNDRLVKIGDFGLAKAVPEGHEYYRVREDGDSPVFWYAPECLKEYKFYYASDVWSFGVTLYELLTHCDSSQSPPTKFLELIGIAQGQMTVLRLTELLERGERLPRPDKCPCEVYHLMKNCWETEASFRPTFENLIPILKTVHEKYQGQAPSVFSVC
Method: as §1, §2, §3, §4

[3] = system: human tyrosine kinase 2 (TYK2), recombinant catalytic domain; assay: LanthaScreen TR-FRET enzymatic assay, TYK2; assay type: biochemical; conditions: ratio of IC50 against TYK2 over IC50 against JAK1
Method: as §1, §2, §3, §4

[4] = target: human Janus kinase 2 (JAK2), recombinant catalytic domain (Homo sapiens (Human), UniProt O60674); assay: LanthaScreen TR-FRET enzymatic assay, JAK2; assay type: biochemical; conditions: for IC50: TR-FRET, 1 mM ATP, GFP-STAT1 substrate, read-out: Inhibitory Activity IC50 JAK2; for Selectivity JAK2/JAK1: ratio of IC50 against JAK2 over IC50 against JAK1
human Janus kinase 2 (JAK2), recombinant catalytic domain, sequence (O60674 808-1132): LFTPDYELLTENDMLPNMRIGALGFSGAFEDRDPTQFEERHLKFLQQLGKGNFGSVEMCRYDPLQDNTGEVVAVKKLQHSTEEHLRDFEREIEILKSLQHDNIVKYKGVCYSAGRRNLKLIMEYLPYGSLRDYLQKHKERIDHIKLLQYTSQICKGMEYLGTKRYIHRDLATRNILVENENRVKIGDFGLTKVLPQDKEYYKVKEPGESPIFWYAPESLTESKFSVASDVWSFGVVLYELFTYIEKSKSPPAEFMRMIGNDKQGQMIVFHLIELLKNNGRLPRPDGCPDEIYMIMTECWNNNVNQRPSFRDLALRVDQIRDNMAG
Method: as §1, §2, §3, §4

[5] = system: human Janus kinase 3 (JAK3), recombinant catalytic domain; assay: LanthaScreen TR-FRET enzymatic assay, JAK3; assay type: biochemical; conditions: ratio of IC50 against JAK3 over IC50 against JAK1
Method: as §1, §2, §3, §4

[6] = target: human Janus kinase 3 (JAK3), recombinant catalytic domain (Homo sapiens (Human), UniProt P52333); assay: LanthaScreen TR-FRET enzymatic assay, JAK3; assay type: biochemical; conditions: TR-FRET, 1 mM ATP, GFP-STAT1 substrate; read-out: Inhibitory Activity IC50 JAK3
human Janus kinase 3 (JAK3), recombinant catalytic domain (Homo sapiens (Human), UniProt P52333), sequence (P52333 781-1124): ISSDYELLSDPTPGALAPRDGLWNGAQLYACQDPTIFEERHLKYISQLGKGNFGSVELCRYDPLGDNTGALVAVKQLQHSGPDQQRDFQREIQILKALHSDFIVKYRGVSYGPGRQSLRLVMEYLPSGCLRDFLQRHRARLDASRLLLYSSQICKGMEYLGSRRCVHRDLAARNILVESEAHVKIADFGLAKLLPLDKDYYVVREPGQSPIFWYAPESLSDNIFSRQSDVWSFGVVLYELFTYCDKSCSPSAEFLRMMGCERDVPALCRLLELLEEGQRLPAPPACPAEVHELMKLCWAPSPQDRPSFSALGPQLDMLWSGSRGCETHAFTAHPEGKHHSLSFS
Method: as §1, §2, §3, §4

human Janus kinase 1 (JAK1), recombinant catalytic domain, sequence (P23458 866-1154): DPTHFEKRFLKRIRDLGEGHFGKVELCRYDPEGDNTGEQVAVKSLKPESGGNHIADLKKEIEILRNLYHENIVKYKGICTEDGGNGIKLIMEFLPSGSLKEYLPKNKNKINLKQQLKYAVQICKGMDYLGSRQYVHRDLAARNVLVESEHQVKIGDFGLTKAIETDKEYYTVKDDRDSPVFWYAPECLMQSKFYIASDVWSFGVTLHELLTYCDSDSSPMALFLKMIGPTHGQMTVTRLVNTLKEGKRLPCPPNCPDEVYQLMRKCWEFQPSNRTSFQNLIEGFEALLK

Row | IC50 [1] [nM] | IC50 (JAK1) [nM] | IC50 [2] [nM] | IC50 [4] [nM] | IC50 [6] [nM] | Structure (SMILES) | Selectivity TYK2/JAK1 [3] | Selectivity JAK2/JAK1 [4] | Selectivity JAK3/JAK1 [5]
1 | ≤ 500 | ≤ 500 | 500 to 1000 | 500 to 1000 | > 5000 | O=C(Nc1cn2c(-c3ccc(CN4CCS(=O)(=O)CC4)c(F)c3)cccc2n1)C1CC1 [Compound 28] | A′ (A′ represents a ratio of greater than 8) | A′ (A′ represents a ratio of greater than 8) | A′ (A′ represents a ratio of greater than 8)
2 | ≤ 500 | ≤ 500 | ≤ 500 | 500 to 1000 | > 5000 | O=C(Nc1cn2c(-c3ccc(NS(=O)(=O)C4CC4)cc3)cccc2n1)C1CC1 [Compound 30] | B′ (B′ represents a ratio of no greater than 8 but no less than 4) | A′ (A′ represents a ratio of greater than 8) | A′ (A′ represents a ratio of greater than 8)
